What all share (format): cell-based, Chinese Hamster
Assay [1] has as its system CHO-DG44 cells producing a multispecific antibody derivative (cell line 2). As to the kind of experiment: Fed-batch shake flask culture with cysteine/cystine derivatives, cell line 2 (Example 2). The settings on record: 50% replacement; day 14; cell line 2, shake flask. As to the method: The ability of cysteine/cystine derivatives to reduce color and acidic species of a recombinant protein preparation in cell culture was evaluated using another antibody-producing cell line, cell line 2. For this experiment a scale-down model in shake flask was used. CHO-DG44 cells producing a multispecific antibody derivative were inoculated in 100 mL of basal media at a seeding density of 0.35×10^6 cells/mL. The shake flask vessels were 250 mL shake flasks (corning) disposed in an agitated incubator (Infors) protected from light. The cells were cultivated for 14 days at 36.8° C. with 80% of humidity. The cell cultures were agitated at 140 rpm at the beginning of the process. The agitation was increased during the process progressively to reach 250 rpm to maintain a DO % at 40% in the shake flask, as is it done in the 2 L bioreactor process. […]
The cysteine present in the Feed was replaced by different cysteine and cystine derivatives with a replacement ratio of 50% equimolar (Table 1). […] Osmolality was daily monitored using an osmometer from Advanced instrument. Off line pH, dissolved O2 and dissolved CO2 were daily monitored using a Nova Biomedical Phox (Nova biomedical). Metabolites concentrations were daily determined using a CedexBioHT system (Roche). Viable cell concentration and cell viability were measured daily using a ViCell automated cell counter (Beckman Coulter). […]

Assay [2] relates to CHO-DG44 cells from cell line 1. Nature of the assay: Fed-batch 2 L bioreactor culture with cysteine/cystine derivatives, cell line 1 (Example 3). The settings on record: 50% replacement, cell line 1, 2 L bioreactor. The protocol: (§1) The ability of cysteine/cystine derivatives to reduce color and acidic species of a recombinant protein preparation produced in cell culture was evaluated in a bioreactor for two cell lines. This model is more representative of the large-scale production than the shake flask due to the geometry and additional control. CHO-DG44 cells from cell line 1 and 2 were inoculated in 1300 mL of basal media at a seeding density of 0.35×10^6 cells/mL in 2 L stirred bioreactor (Sartorius). The cells were cultivated during 14 days in fed-batch mode. The cell cultures were agitated at 280 rpm and the DO was maintained at 40%. The cell culture was maintained at pH 7.0±0.2 with an automatic CO2 sparging regulation. Cells were cultured in a fed-batch mode with bolus addition of Feed every day of culture. The basal media contained 0.04 mmol/L of cysteine+0.38 mmol/L of cystine. The Feed contained 153.3 mmol/L of cystine. Over the entire 14-day production phase, the total volume of Feed added corresponded to 5.7% (w/w) of the culture start volume for cell line 1 and to 3.1% (w/w) of the culture start volume for cell line 2.
(§2) The cysteine present in the Feed was replaced by different cysteine- and cystine derivatives at different percentages as presented in Table 2. A condition with only 50% of cysteine was added to test whether the improvements observed were due to the cysteine derivative or to the reduction of cysteine only. Osmolality was daily monitored using an osmometer from Advanced instrument. Off line pH, dissolved O2 and dissolved CO2 were daily monitored using a Nova Biomedical Phox (Nova biomedical). Metabolites concentrations were daily determined using a CedexBioHT system (Roche). Viable cell concentration and cell viability were measured daily using a ViCell automated cell counter (Beckman Coulter). The cell culture fluid was collected daily by centrifuging 1 mL of cell culture fluid for determination of antibody titer by HPLC prot A (waters) or using protein-L Octet measurement (Pall). At the end of the 14 days of culture, the cell culture fluid was harvested by centrifugation. The supernatant was then purified using a protein-A or L affinity chromatography (GE). The protein-A or L eluates were used for the molecular weight determination using UPLC size exclusion (Waters) and for the charge variants determination using isocapillary focusing (PROTEINSIMPLE iCE3). Another part of the protein-A eluates (only from cell line 1) was concentrated to 40 mg/mL using Amicon centricon centrifugal filter devices (Millipore). Color intensity of the concentrated antibody composition was measured in the concentrated protein A eluates using a spectrophotometer by transmission (UltrascanPro) and compared to the CIE (commission internationale de l'éclairage) scale. The numerical results were normalized to the concentration of 40 mg/mL.

Assay [3] has as its system CHO-DG44 cells from cell line 2. As to the kind of experiment: Fed-batch 2 L bioreactor culture with cysteine/cystine derivatives, cell line 2 (Example 3). The settings on record: 50% replacement; cell line 2, 2 L bioreactor. The protocol: as §1, §2
A further assay relates to cell line 1. As to the kind of experiment: Reproducibility in 2 L bioreactor, cell line 1, average of data sets 1 and 2 (Example 4). The settings on record: 50% replacement. As to the method:
as §1, §2
The reproducibility of the results was evaluated in bioreactor with cell line 1. The experiments of Example 3 were repeated with an additional control and a bioreactor with 50% S-sulfocysteine 50% Cysteine Feed. The data from the two experiments were analyzed to confirm the effect previously observed with cysteine/cystine derivatives.

The test system of assay [4] is CHO-DG44 cells from cell line 1. Nature of the assay: Fed-batch Ambr15 mini bioreactor culture, different replacement levels, cell line 1 (Example 5). The settings on record: at optimum, around 70% of replacement. The protocol:
We tested different concentrations of cysteine/cystine derivatives on the improvement on the APG level of a recombinant protein preparation produced in cell culture cultivated in mini bioreactors. CHO-DG44 cells from cell line 1 were inoculated in 12 mL basal media at a seeding density of 0.35×10^6 cells/mL in Ambr15 bioreactors (Sartorius). The cells were cultivated in fed-batch mode during 14 days. The DO was maintained at 40% and the pH was maintained 7.0±0.2 with an automatic CO2 sparging regulation. Viable cell concentration and cell viability were measured daily using a ViCell automated cell counter (Beckman Coulter). Cells were cultured in a fed-batch mode with a daily bolus addition of Feed. The basal media contained 0.04 mmol/L cysteine+0.38 mmol/L cystine. The Feed contained 153.3 mmol/L of cystine. Over the entire 14-day production phase, the total volume of added Feed corresponded to 4.7% (v/v) of the culture start volume.
Different percentages of cysteine present in the Feed was replaced by different cysteine- and cystine analogs. Table 4 provides an overview of different percentages tested and their equivalence in molar ratio relative to cysteine or cystine. E.g. for N-Acetyl-L-cysteine 10% means that 10% molar amount of cysteine equivalent has been replaced by 10% molar amount of N-Acetyl-L-cysteine; for N,N′-Diacetyl-L-cystine, 10% means that 10 molar amount of cystine equivalent has been replaced with 10% molar amount of N,N′-Diacetyl-L-cystine. At the end of the 14 days of culture, the cell culture fluid was harvested by centrifugation. The supernatant was then purified using a protein-A affinity chromatography (GE). The protein-A eluates were used for the charge variants determination using isocapillary focusing (PROTEINSIMPLE iCE3).

SMILES strings stand for the structures.

`CC(=O)N[C@@H](CS)C(=O)O` [N-acetyl-L-cysteine, N-Acetyl-L-cysteine]: in assay [1], the “decrease on acidic variants level compared to control” value was 14.5%. Further, in assay [2], the “decrease of acidic species level compared to control” value came out at 10% and the main species level result is on record as “increase of main species”. In assay [2] (40 mg/mL), the “decrease of the b value level (color intensity) compared to control” value amounted to 13%. Moreover, in assay [3], the “decrease of acidic species level compared to control” value is listed as 13% and the main species level result is given as “increase of main species”. Besides, the specific productivity entry with cell line 1 (compared to 50% cysteine feed) is on record as “did not impact the productivity”. In the assay with cell line 1 (data sets 1 and 2 average), the “average decrease of acidic species level compared to control” value was found to be 10%, the “average decrease of b value level (color intensity) compared to control” value came out at 13%, the “decrease in antibody titer compared to the controls average” value is recorded as 10% and the main species level entry was “increase of main species”. The “cell growth (VCC) compared to control” value in the assay with cell line 1 (from day 9, 2 L bioreactor, data sets 1 and 2) is “higher VCCs than the control conditions”. Also, the “decrease of acidic species” value in assay [4] was 12.5%.

The values are drawn from patent publication US11859203B2, “Cell culture methods” (UCB BIOPHARMA SRL, priority 2017, dated 2024).
